Data: ChEMBL document CHEMBL1201862, “PubChem BioAssay data set” (2004)
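Protocol summary: plate cells (96-well), add compound at 5 concentrations, incubate 48 h, interpolate endpoints linearly. GI50 marks 50% less growth.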 Active and inactive are the calls of the source. Cut-off read from the data, not from the text of the source: active = GI50 up to about 1.1 µM and inactive = higher.

Columns and labels:
Experiment in all cases: NCI tumour cell line growth inhibition, 48 h
[1] = test system: SK-MEL-5
[2] = test system: OVCAR-5
[3] = test system: SK-OV-3
[4] = test system: HT-29
[5] = test system: SK-MEL-28
[6] = test system: SW-620
[7] = test system: MOLT-4
[8] = test system: SF-295
[9] = test system: HL-60
[10] = test system: DLD-1
[11] = test system: SF-539
[12] = test system: RXF 393
[13] = test system: OVCAR-8
[14] = test system: U-251
[15] = test system: HCC 2998
[16] = test system: DMS-273
[17] = test system: NCI-H23
[18] = test system: IGROV-1
[19] = test system: UO-31
[20] = test system: SF-268
[21] = test system: SN12C
[22] = test system: DMS-114
[23] = test system: LOX IMVI
[24] = test system: HOP-62
[25] = test system: CCRF-CEM
[26] = test system: XF498
[27] = test system: OVCAR-4
[28] = test system: NCI-H522
[29] = test system: NCI/ADR-RES
[30] = test system: SNB-78
[31] = test system: SNB-19
[32] = test system: COLO 205
[33] = test system: EKVX
[34] = test system: SK-MEL-2
[35] = test system: UACC-257
[36] = test system: HOP-92
[37] = test system: A549
[38] = test system: UACC-62
[39] = test system: KM12
[40] = test system: HOP-18
[41] = test system: OVCAR-3
[42] = test system: KM-20L2
[43] = test system: HCT-15
[44] = test system: CAKI-1
[45] = test system: A498
[46] = test system: NCI-H460
[47] = test system: HCT-116
[48] = test system: SNB-75
[49] = test system: Malme-3M
[50] = test system: M19-MEL
[51] = test system: K562
[52] = test system: MCF7
[53] = test system: RPMI-8226
[54] = test system: NCI-H226
[55] = test system: 786-0
[56] = test system: TK-10
[57] = test system: ACHN
[58] = test system: LXFL 529
[59] = test system: M14
[60] = test system: SR

Structure (SMILES): Cc1c2ccnc(C(F)(F)F)c2cc2c1[nH]c1ccccc12
- GI50 [1]: > 125 µM (inactive)
- GI50 [2]: > 125 µM (inactive)
- GI50 [3]: 36.3 µM (inactive)
- GI50 [4]: > 125 µM (inactive)
- GI50 [5]: > 125 µM (inactive)
- GI50 [6]: > 125 µM (inactive)
- GI50 [7]: 85.1 µM (inactive)
- GI50 [8]: 23.2 µM (inactive)
- GI50 [9]: > 125 µM (inactive)
- GI50 [10]: > 125 µM (inactive)
- GI50 [11]: 99.1 µM (inactive)
- GI50 [12]: 16.6 µM (inactive)
- GI50 [13]: 110 µM (inactive)
- GI50 [14]: > 125 µM (inactive)
- GI50 [15]: > 125 µM (inactive)
- GI50 [16]: > 125 µM (inactive)
- GI50 [17]: > 125 µM (inactive)
- GI50 [18]: > 125 µM (inactive)
- GI50 [19]: > 125 µM (inactive)
- GI50 [20]: 101 µM (inactive)
- GI50 [21]: > 125 µM (inactive)
- GI50 [22]: > 125 µM (inactive)
- GI50 [23]: > 125 µM (inactive)
- GI50 [24]: 73.3 µM (inactive)
- GI50 [25]: > 125 µM (inactive)
- GI50 [26]: 12 µM (inactive)
- GI50 [27]: > 125 µM (inactive)
- GI50 [28]: > 125 µM (inactive)
- GI50 [29]: > 125 µM (inactive)
- GI50 [30]: 86.5 µM (inactive)
- GI50 [31]: 118 µM (inactive)
- GI50 [32]: > 125 µM (inactive)
- GI50 [33]: > 125 µM (inactive)
- GI50 [34]: > 125 µM (inactive)
- GI50 [35]: > 125 µM (inactive)
- GI50 [36]: 8.63 µM (inactive)
- GI50 [37]: > 125 µM (inactive)
- GI50 [38]: > 125 µM (inactive)
- GI50 [39]: 121 µM (inactive)
- GI50 [40]: 0.673 µM (active)
- GI50 [41]: 114 µM (inactive)
- GI50 [42]: > 125 µM (inactive)
- GI50 [43]: > 125 µM
- GI50 [44]: > 125 µM (inactive)
- GI50 [45]: 11.4 µM (inactive)
- GI50 [46]: 123 µM (inactive)
- GI50 [47]: > 125 µM (inactive)
- GI50 [48]: 64 µM (inactive)
- GI50 [49]: 98.2 µM (inactive)
- GI50 [50]: > 125 µM (inactive)
- GI50 [51]: > 125 µM (inactive)
- GI50 [52]: 17.1 µM (inactive)
- GI50 [53]: 85.1 µM (inactive)
- GI50 [54]: 38.9 µM (inactive)

Structure (SMILES): COc1ccc2nc(-c3cccs3)cc(C(O)CN3CCSCC3)c2c1 (configuration not stated)
- GI50 [1]: 16.4 µM (inactive)
- GI50 [2]: 19.2 µM (inactive)
- GI50 [3]: 39.6 µM (inactive)
- GI50 [4]: 25 µM (inactive)
- GI50 [5]: 24.9 µM (inactive)
- GI50 [6]: 30.7 µM (inactive)
- GI50 [7]: 12.2 µM (inactive)
- GI50 [8]: 27.6 µM (inactive)
- GI50 [9]: 2.58 µM (inactive)
- GI50 [10]: 23.6 µM (inactive)
- GI50 [11]: 22.1 µM (inactive)
- GI50 [12]: 45 µM (inactive)
- GI50 [13]: 16.6 µM (inactive)
- GI50 [14]: 19.2 µM (inactive)
- GI50 [15]: 19.7 µM (inactive)
- GI50 [16]: 19.5 µM (inactive)
- GI50 [17]: 20.9 µM (inactive)
- GI50 [18]: 36 µM (inactive)
- GI50 [19]: 18.7 µM (inactive)
- GI50 [20]: 27 µM (inactive)
- GI50 [21]: 25.1 µM (inactive)
- GI50 [22]: 12.2 µM (inactive)
- GI50 [23]: 16.5 µM (inactive)
- GI50 [55]: 16.8 µM (inactive)
- GI50 [56]: 31.2 µM (inactive)
- GI50 [24]: 24.2 µM (inactive)
- GI50 [25]: 11.9 µM (inactive)
- GI50 [26]: 16.3 µM (inactive)
- GI50 [57]: 13.5 µM (inactive)
- GI50 [27]: 8.3 µM (inactive)
- GI50 [28]: 14.1 µM (inactive)
- GI50 [31]: 29.2 µM (inactive)
- GI50 [32]: 22.9 µM (inactive)
- GI50 [33]: 29 µM (inactive)
- GI50 [34]: 17 µM (inactive)
- GI50 [35]: 21.2 µM (inactive)
- GI50 [36]: 14.3 µM (inactive)
- GI50 [37]: 30.1 µM (inactive)
- GI50 [38]: 17.7 µM (inactive)
- GI50 [39]: 22.3 µM (inactive)
- GI50 [58]: 12.6 µM (inactive)
- GI50 [40]: 19.8 µM (inactive)
- GI50 [41]: 36.8 µM (inactive)
- GI50 [42]: 21.6 µM (inactive)
- GI50 [43]: 16.1 µM
- GI50 [44]: 17.3 µM (inactive)
- GI50 [46]: 16.3 µM (inactive)
- GI50 [48]: 23.6 µM (inactive)
- GI50 [49]: 15.2 µM (inactive)
- GI50 [50]: 22.8 µM (inactive)
- GI50 [51]: 12.9 µM (inactive)
- GI50 [53]: 10.5 µM (inactive)
- GI50 [59]: 18.1 µM (inactive)

Structure (SMILES): NC1C=NNC1=O (configuration not stated)
- GI50 [1]: > 100 µM (inactive)
- GI50 [2]: > 100 µM (inactive)
- GI50 [3]: > 100 µM (inactive)
- GI50 [4]: > 100 µM (inactive)
- GI50 [5]: > 100 µM (inactive)
- GI50 [6]: > 100 µM (inactive)
- GI50 [7]: > 100 µM (inactive)
- GI50 [8]: > 100 µM (inactive)
- GI50 [9]: > 100 µM (inactive)
- GI50 [10]: > 100 µM (inactive)
- GI50 [11]: > 100 µM (inactive)
- GI50 [12]: > 100 µM (inactive)
- GI50 [13]: > 100 µM (inactive)
- GI50 [14]: > 100 µM (inactive)
- GI50 [15]: > 100 µM (inactive)
- GI50 [16]: > 100 µM (inactive)
- GI50 [17]: > 100 µM (inactive)
- GI50 [18]: > 100 µM (inactive)
- GI50 [19]: > 100 µM (inactive)
- GI50 [20]: > 100 µM (inactive)
- GI50 [21]: > 100 µM (inactive)
- GI50 [22]: > 100 µM (inactive)
- GI50 [23]: > 100 µM (inactive)
- GI50 [56]: > 100 µM (inactive)
- GI50 [25]: > 100 µM (inactive)
- GI50 [26]: > 100 µM (inactive)
- GI50 [57]: > 100 µM (inactive)
- GI50 [27]: > 100 µM (inactive)
- GI50 [28]: > 100 µM (inactive)
- GI50 [30]: > 100 µM (inactive)
- GI50 [31]: > 100 µM (inactive)
- GI50 [32]: > 100 µM (inactive)
- GI50 [33]: > 100 µM (inactive)
- GI50 [34]: > 100 µM (inactive)
- GI50 [35]: > 100 µM (inactive)
- GI50 [37]: > 100 µM (inactive)
- GI50 [38]: > 100 µM (inactive)
- GI50 [39]: > 100 µM (inactive)
- GI50 [58]: > 100 µM (inactive)
- GI50 [40]: < 0.01 µM (active)
- GI50 [42]: > 100 µM (inactive)
- GI50 [43]: > 100 µM
- GI50 [44]: > 100 µM (inactive)
- GI50 [48]: > 100 µM (inactive)
- GI50 [49]: > 100 µM (inactive)
- GI50 [51]: > 100 µM (inactive)
- GI50 [53]: > 100 µM (inactive)
- GI50 [59]: > 100 µM (inactive)

Structure (SMILES): N#CC(NC12CC3CC(CC(C3)C1)C2)c1ccccc1C(F)(F)F (configuration not stated)
- GI50 [1]: > 100 µM (inactive)
- GI50 [2]: > 100 µM (inactive)
- GI50 [4]: > 100 µM (inactive)
- GI50 [5]: > 100 µM (inactive)
- GI50 [6]: > 100 µM (inactive)
- GI50 [7]: > 100 µM (inactive)
- GI50 [9]: > 100 µM (inactive)
- GI50 [10]: > 100 µM (inactive)
- GI50 [11]: > 100 µM (inactive)
- GI50 [12]: > 100 µM (inactive)
- GI50 [13]: > 100 µM (inactive)
- GI50 [15]: > 100 µM (inactive)
- GI50 [16]: > 100 µM (inactive)
- GI50 [17]: > 100 µM (inactive)
- GI50 [19]: > 100 µM (inactive)
- GI50 [20]: > 100 µM (inactive)
- GI50 [21]: > 100 µM (inactive)
- GI50 [22]: > 100 µM (inactive)
- GI50 [23]: > 100 µM (inactive)
- GI50 [56]: > 100 µM (inactive)
- GI50 [24]: > 100 µM (inactive)
- GI50 [25]: > 100 µM (inactive)
- GI50 [26]: > 100 µM (inactive)
- GI50 [57]: > 100 µM (inactive)
- GI50 [27]: > 100 µM (inactive)
- GI50 [28]: > 100 µM (inactive)
- GI50 [31]: > 100 µM (inactive)
- GI50 [32]: > 100 µM (inactive)
- GI50 [33]: > 100 µM (inactive)
- GI50 [34]: > 100 µM (inactive)
- GI50 [60]: > 100 µM (inactive)
- GI50 [37]: > 100 µM (inactive)
- GI50 [39]: > 100 µM (inactive)
- GI50 [58]: > 100 µM (inactive)
- GI50 [40]: > 100 µM (inactive)
- GI50 [41]: > 100 µM (inactive)
- GI50 [42]: > 100 µM (inactive)
- GI50 [43]: > 100 µM
- GI50 [44]: > 100 µM (inactive)
- GI50 [46]: > 100 µM (inactive)
- GI50 [47]: > 100 µM (inactive)
- GI50 [49]: > 100 µM (inactive)
- GI50 [50]: > 100 µM (inactive)
- GI50 [51]: > 100 µM (inactive)
- GI50 [53]: > 100 µM (inactive)
- GI50 [54]: > 100 µM (inactive)
- GI50 [59]: > 100 µM (inactive)
